The values that follow come from patent US20110300167A1, “CXCR5 RECEPTOR COMPOUNDS” (priority 2008, published 2011).

What all share (type): cell-based
In assay [1] the target is T1, CXCR5 (Homo sapiens, UniProt P32302).
T1 sequence (P32302 1-372): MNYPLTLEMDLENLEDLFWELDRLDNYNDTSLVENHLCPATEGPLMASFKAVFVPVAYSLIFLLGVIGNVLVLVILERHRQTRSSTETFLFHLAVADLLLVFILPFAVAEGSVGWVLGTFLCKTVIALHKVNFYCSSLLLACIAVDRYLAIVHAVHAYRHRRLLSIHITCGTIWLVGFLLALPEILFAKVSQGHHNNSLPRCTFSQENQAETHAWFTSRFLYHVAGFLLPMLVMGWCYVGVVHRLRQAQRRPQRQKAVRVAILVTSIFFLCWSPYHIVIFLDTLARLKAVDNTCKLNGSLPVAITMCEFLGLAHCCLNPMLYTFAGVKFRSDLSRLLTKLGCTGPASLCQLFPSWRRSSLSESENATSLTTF
Description: HTRF cAMP assay, inhibition of forskolin-stimulated cAMP production in HEK293 cells expressing hCXCR5. Details: expressed in transfected cells; host or cells: HEK293. Conditions: HEK293 cells expressing hCXCR5, 2 doses of compound (3 uM, 0.3 uM). From the text:
HTRF (homogeneous time resolved fluorescence) is a technology developed by Cisbio Bioassays based on TR-FRET (time-resolved fluorescence resonance energy transfer). Cisbio Bioassays has developed a wide selection of HTRF-based assays compatible with whole cells, thereby enabling functional assays run under more physiological conditions. cAMP kits are based on a competitive immunoassay using cryptate-labeled anti-cAMP antibody and d2-labeled cAMP. This assay allows the measurement of increase in intracellular cAMP upon Gs-coupled receptor activation as well as decrease in forskolin stimulated increase in cAMP upon Gi-coupled receptor activation. The IP-One assays are competitive immunoassays that use cryptate-labeled anti-IP1 monoclonal antibody and d2-labeled IP1. IP1 is a relatively stable downstream metabolite of IP3, and accumulates in cells following Gq receptor activation.
A cAMP assay was performed in the presence of Compound 14 to assess the activation of CXCR5 by the production of cAMP. HEK293 cells expressing hCXCR5 were incubated with CXCL13, and the inhibition of forskolin-stimulated cAMP production was quantified in cells in the absence and presence of Compound 14. […] This response is indicative of a reduction of decrease in forskolin-stimulated cAMP due to enhanced CXCR5 (Gi) activation.

Assay [2] addresses T1, CXCR5. The experiment in a line: β-arrestin assay (DiscoverX eXpress β-arrestin cells expressing CXCR5). An excerpt: The β-arrestin assays developed by DiscoverX employed herein detect binding of a ligand to the GPCR by directly measuring β-arrestin recruitment to the GPCR independent of G-protein coupling. In this system, β-arrestin is fused to an N-terminal deletion mutant of β-gal (termed the enzyme acceptor of EA) and the GPCR of interest is fused to a smaller (42 amino acids), weakly complementing fragment. In cells that stably express these fusion proteins, ligand stimulation results in the interaction of β-arrestin and the tagged GPCR, forcing the complementation of the two β-gal fragments and resulting in the formation of a functional enzyme that converts substrate to detectable signal. In practice, eXpress β-arrestin cells expressing the receptor of interest are incubated with either compound alone (agonist mode), or compound plus native ligand (allosteric mode). A chemiluminescent substrate is then added to determine the extent of enzyme activity, and by inference, arrestin recruitment to GPCR.
The β-arrestin assays for CXCR5 Compound 14 were run in both agonist and allosteric modes. In agonist mode, the CXCR5-expressing eXpress β-arrestin cells were incubated with a dose curve of CXCR5 Compound 14 in the absence of CXCL13. […] In allosteric mode, Compound 14 is co-incubated with CXCL13, and the CXCR5 response of the eXpress cells is quantified.

Assay [3] has as its target T1, CXCR5. Description: Chemotaxis assay (Transwell, CXCL13 dose-response, 300.19 cells expressing CXCR5). Conditions: 300.19 cells incubated with compound, compared to the vehicle control. From the text: Chemotaxis assays were utilized to determine the effect of compound on the directed migration of cells in response to chemokine. 300.19 cells that express CXCR5 were placed in the upper chamber of a Transwell chemotaxis plate (Corning) and allowed to migrate through a polycarbonate membrane to a lower chamber containing the appropriate receptor-specific ligand. To test for antagonist or potentiating activity, cells were mixed with the desired concentration of compound prior to addition to the upper chamber. Conversely, agonist activity was determined by adding compound in the bottom chamber only without endogenous chemokine. The effect of compound is quantified by several parameters, including the extent of maximum response, the shift of agonist dose-response curves, and the area under the curve. […]
To initiate cell migration, the assembled transwell plate was placed in a 37° C., […] incubator for a specified time interval, typically between 30 and 120 minutes. […] To quantify migrated cells, plates were thawed at 37° C. in a humidified chamber, and then a sample volume was removed from each well and mixed with an equal volume of CyQuant (Invitrogen) working solution in opaque plates. The fluorescence intensity of each well represents the DNA content and is directly proportional to cell number. […]

On to Pal-HAVHAYRHRRLLS-amide [Compound 14], for which the “shift of cAMP responses to CXCL13 (inhibition of forskolin-stimulated cAMP production)” value at CXCR5 [1] is “shifted leftward in a dose-dependent manner”. Further, the “β-arrestin recruitment response curve, allosteric mode” value at CXCR5 [2] (compound co-incubated with CXCL13) was “left-shifted and higher maximal response curve”. On CXCR5 [2] (dose curve of compound in the absence of CXCL13), the “β-arrestin recruitment response, agonist mode” value was “lack of response”. Also, the “shift of the bell-shaped ligand dose-response curve (chemotaxis)” value at CXCR5 [3] (CXCL13 dose-response) was “leftward shift”. Further, on CXCR5 [3], the “AUC of the bell-shaped ligand dose-response curve (chemotaxis)” value is given as “increase”.
